Here are results for four molecules from patent US5733931A, “Cyclohexanediurea derivative and process for its production” (Nissin Food Products Co., Ltd., priority 1993, dated 1998).

Molecules are shown by their SMILES.

Assay [1] addresses ACAT enzyme of rabbit liver microsomes. The assay can be described thus: Inhibitory effect on ACAT enzyme (No.2), rabbit liver microsomes. The class given is biochemical. The note with it: pH 7.4, 37° C., 60 minutes, Table 10. On the procedure: (§1) 2) Inhibitory effect on ACAT (Acyl-CoA: cholesterol acyltransferase) enzyme (No.2)
(§2) [2-1] ACAT enzyme activities of rabbit liver and small intestine mucosa microsomes
(§3) A white male rabbit was fed with a […] cholesterol-containing food for four weeks and bleeding-slaughtered to extract its liver and small intestine. Microsomes of the liver and small intestine mucosa were prepared by the method of C. Marco et al. (Biochim. Biophys. Acta, 617, 458-471, 1980).
(§4) ACAT enzyme activities of the microsomes were determined by the method of J. G. Heider (J. Lipid Res., 24, 1127-1134, 1983). A test sample dissolved in 1% dimethylsulfoxide was added to a microsome fraction (100 μg), a phosphoric acid buffer (0.154M) having pH 7.4, 1-^14 C-oleoyl CoA (36 μM), dithiosleitol (2 mM) and bovine blood serum albumin (36 μg/ml). The reaction mixture adjusted to a final capacity of 0.5 ml was incubated at 37° C. for 60 minutes. A mixture (6 ml) of chloroform and methanol (2:1) was added and the reaction was stopped. Cholesterol oleate was extracted with chloroform and separated by thin-layer chromatography. ACAT enzyme activities of the microsome fractions were determined by radiation measurement.

Assay [2] concerns serum cholesterol. The assay can be described thus: Serum cholesterol lowering effect in rat having high cholesterol [3-2]. In kind it is in vivo, SD-type (Sprague-Dawley) male rat. The note with it: oral, once a day for the last 5 days, Tween 80 and saline suspension, Table 13. On the procedure: [3-2] Using a rat having high cholesterol, compounds of the invention were tested for their serum cholesterol lowering effects by the following method. A 6-week-old SD-type (Sprague-Dawley) male rat was fed with food containing 1% of cholesterol, 0.5% of cholic acid and 5% of olive oil for 7 days. For the last 5 days, a test sample suspended in some drops of Tween 80 and saline was orally administered once a day. Four hours after the final administration, a blood sample was taken from celiac aorta of the rat under etherization. The total cholesterol in the serum of the test group was measured by the oxygen method and compared with that of the control group.

Assay [3] has as its target T1, ACAT enzyme of rabbit small intestine mucosa microsomes (Oryctolagus cuniculus, UniProt G1SFD9).
T1 construct: Microsomes of the liver and small intestine mucosa were prepared; from tissue; host or cells: small intestine mucosa microsomes of a cholesterol-fed white male rabbit
T1 sequence (G1SFD9 1-524): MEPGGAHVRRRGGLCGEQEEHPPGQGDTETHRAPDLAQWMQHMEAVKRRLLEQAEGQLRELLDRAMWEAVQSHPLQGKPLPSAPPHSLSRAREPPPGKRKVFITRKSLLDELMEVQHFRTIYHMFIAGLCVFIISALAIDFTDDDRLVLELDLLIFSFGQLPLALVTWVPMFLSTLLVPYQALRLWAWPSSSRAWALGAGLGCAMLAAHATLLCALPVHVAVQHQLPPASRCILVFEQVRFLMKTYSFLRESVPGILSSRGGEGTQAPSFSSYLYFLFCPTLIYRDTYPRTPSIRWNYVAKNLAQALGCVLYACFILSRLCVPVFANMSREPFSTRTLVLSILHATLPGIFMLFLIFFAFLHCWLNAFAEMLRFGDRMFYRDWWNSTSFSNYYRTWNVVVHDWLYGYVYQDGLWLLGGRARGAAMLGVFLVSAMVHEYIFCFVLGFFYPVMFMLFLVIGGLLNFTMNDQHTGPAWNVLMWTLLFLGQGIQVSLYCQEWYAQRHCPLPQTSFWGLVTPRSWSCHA
The assay can be described thus: Inhibitory effect on ACAT enzyme (No.2), rabbit small intestine mucosa microsomes. The class given is biochemical. The note with it: pH 7.4, 37° C., 60 minutes, Table 10. The protocol: as §1, §2, §3, §4

The target in assay [4] is ACAT (Acyl-CoA: cholesterol acyltransferase) enzyme of rabbit liver microsome. Briefly: Inhibitory effect on ACAT enzyme (No.1), rabbit liver microsome. The class given is biochemical. The note with it: Table 9. On the procedure:
1) Inhibitory effect on ACAT (Acyl-CoA: cholesterol acyltransferase) enzyme (No.1)
Compounds of the invention were tested for their inhibitory effects on ACAT enzyme of rabbit liver microsome by the method of J. G. Heider (J. of Lipid Res., vol. 24, 1127-1134, 1983). More specifically, the test was done by measuring the amount of labelled cholesterol oleate ester produced from oleic acid CoA (coenzyme A) labelled by radiation.

Assay [5] concerns ACAT enzyme of human HepG2 cells. Briefly: ACAT enzyme activity of human HepG2 cells (microsome fractions). The note with it: Table 11, read-out: IC50, inhibitory effect on ACAT enzyme activity, human HepG2. The class given is biochemical. On the procedure:
as §4
(§5) [2-2] ACAT enzyme activities of human HepG2 and CaCo2 cells
(§6) Human HepG2 and CaCo2 cells purchased from ATCC (AMERICAN TYPE CULTURE COLLECTION) were used in this test.
(§7) Using RPMI 1640 medium for HepG2 and DMEM medium for CaCo2, HepG2 and CaCo2 cells were cultured with 40 ml of each medium containing 10% bovine blood serum, 50 I.U. of penicillin and 50 μg/ml of streptomycin in a 5% CO2 incubator at 37° C. The cells were then monolayer-culturedwith 80 ml of each medium containing […] of cholesterol and 5 μg/ml of 25-0H cholesterol in a 175 cm flask for 5 hours. The homogenizes of these cells were subjected to centrifugation at 105,000 g to collect microsome fractions. ACAT enzyme activities of the microsome fractions were determined by the above-mentioned method.

Assay [6] has as its system serum cholesterol. The assay can be described thus: Serum cholesterol lowering effect in rat having high cholesterol [3-1]. In kind it is in vivo, SD-type (Sprague-Dawley) male rat. The note with it: oral, once a day for 5 days, dissolved in saline, Table 12. On the procedure:
3) Cholesterol Lowering Effect
[3-1] Using a rat having high cholesterol, compounds of the invention were tested for their serum cholesterol lowering effects by the following method. A 6-week-old SD-type (Sprague-Dawley) male rat was fed with food containing 1% of cholesterol, 0.5% of cholic acid and 5% of olive oil for 2 days and then orally administered the food and a compound of the invention as dissolved in saline once a day for 5 days starting on day 3. Four hours after the final administration, a blood sample was taken. The total cholesterol in the serum of the test group was measured and compared with that of the control group.

The test system of assay [7] is ACAT enzyme of human CaCo2 cells. Briefly: ACAT enzyme activity of human CaCo2 cells (microsome fractions). The class given is biochemical. The note with it: Table 11, read-out: IC50, inhibitory effect on ACAT enzyme activity, human CaCo2. On the procedure:
as §4, §5, §6, §7

Take `CC1CCC(N(C[C@H]2CC[C@H](CN(C(=O)Nc3ccc(N(C)C)cc3)C3CCC(C)CC3)CC2)C(=O)Nc2ccc(N(C)C)cc2)CC1` (relative stereo) [Example 28, Trans-1,4-bis[[3-(4-dimethylaminophenyl)-1-(4-methylcyclohexyl)ureido]methyl]cyclohexane]: the IC50 in assay [1] came to 42 nM; in assay [3], 30 nM; in assay [4], 25 nM; in assay [5], 1.2 nM; in assay [7], 0.52 nM. Also, the “Cholesterol lowering effect, % (serum total cholesterol vs control group)” value (“Cholesterol lowering effect, %” for short) worked out at 70.2% with serum cholesterol [2] (1 mg/kg), 106.5% in the assay with serum cholesterol [2] (3 mg/kg), 106% with serum cholesterol [6] (3 mg/kg) and 100% with serum cholesterol [6] (10 mg/kg).
For the molecule `O=C(Nc1ccc(N2CCCCC2)cc1)N(C[C@H]1CC[C@H](CN(C(=O)Nc2ccc(N3CCCCC3)cc2)C2CCCCC2)CC1)C1CCCCC1` [Example 13, Trans-1,4-bis[[1-cyclohexyl-3-(4-piperidinophenyl)ureido]methyl]cyclohexane], the IC50 worked out at 35 nM in assay [1], 130 nM in assay [3], 0.86 nM in assay [5] and 1.1 nM in assay [7]. For the same molecule, the “Cholesterol lowering effect, %” value worked out at 76.8% with serum cholesterol [2] (1 mg/kg) and 96.2% in the assay on serum cholesterol [2] (3 mg/kg).
As to `O=C(Nc1ccc(N2CCCC2)cc1)N(C[C@H]1CC[C@H](CN(C(=O)Nc2ccc(N3CCCC3)cc2)C2CCCCC2)CC1)C1CCCCC1` [Example 14-1, Trans-1,4-bis[[1-cyclohexyl-3-(4-pyrrolidinophenyl)ureido]methyl]cyclohexan], the IC50 in assay [1] stood at 180 nM; in assay [3] it was 140 nM; in assay [5] it was 0.4 nM; in assay [7] it was 0.8 nM. For the same molecule, the results for the “Cholesterol lowering effect, %” value in the assay with serum cholesterol [2] (1 mg/kg) and with serum cholesterol [2] (3 mg/kg) were 80.9% and 96.2%, respectively.
`CN(C)c1ccc(NC(=O)N(C[C@H]2CC[C@H](CN(C(=O)Nc3ccc(N(C)C)cc3)C3CCCCCC3)CC2)C2CCCCCC2)cc1` [Example 22, Trans-1,4-bis[[1-cycloheptyl-3-(4-dimethyaminophenyl)ureido]methyl]cyclohexane]: the half-maximal inhibitory concentration (IC50) in assay [1] is 83 nM; in assay [3] it was 18 nM; in assay [5], 0.32 nM; in assay [7], 0.22 nM. Further, the “Cholesterol lowering effect, %” value is recorded as 77.6% with serum cholesterol [2] (1 mg/kg) and 97.2% in the assay on serum cholesterol [2] (3 mg/kg).
